Reference: patent US11731939B1, “Indole-based chalcone compounds as antibacterial agents” (KING FAISAL UNIVERSITY, priority 2023, dated 2023)
In brackets after ≈: the same amount, converted by molar mass. Like-named read-outs stand apart in the source and are kept apart here.

Columns and labels:
[1] = tested on: Staphylococcus aureus ATCC 29213; assay: Antibacterial activity, dilution susceptibility test (CLSI M07-A10); assay type: cell-based; conditions: ATCC29213
[2] = tested on: Staphylococcus aureus ATCC BAA-1556 (MERSA resistant); assay: as above; assay type: cell-based; conditions: ATCCBAA1556
DNA gyrase from E. coli = molecular target: T1, DNA gyrase from E. coli (Escherichia coli, UniProt P0AES4+P0AES6); assay: Inhibitory activity on E. coli DNA gyrase (Inspiralis assay); assay type: biochemical
T1 construct: purchased Inspiralis
Experimental: Inhibitory potencies were investigated utilizing the Inspiralis assay on streptavidin-coated 96-well microtiter plates. First, the plates were rehydrated with buffer (20 mM Tris-HCl with pH 7.6, 0.01% w/v BSA, 0.05% v/v Tween 20, 137 mM NaCl) and the biotinylated oligonucleotide was then immobilized. After washing off the unbound oligonucleotide, the enzyme test was performed. […] Reaction solutions were incubated at 37° C. for 30 min. After that, the TF buffer (50 mM NaOAc with pH 5.0, 50 mM NaCl and 50 mM MgCl2) was added to terminate the enzymatic reaction. After additional incubation for 30 min at rt, during which biotinoligonucleotide-plasmid triplex was formed, the unbound plasmid was washed off using TF buffer and SybrGOLD in T10 buffer (10 mM Tris HCl with pH 8.0 and 1 mM EDTA) was added. The fluorescence was measured with a microplate reader (BioTek Synergy H4, excitation: 485 nm, emission: 535 nm). Initial screening was done at 100 or 10 μM concentration of inhibitors. […] GraphPad Prism software was used to calculate the IC50 values. The result is given as the average value of three independent measurements.

[3] = tested on: Klebsiella pneumonia MTCC 618; assay: Antibacterial activity, dilution susceptibility test (CLSI M07-A10); assay type: cell-based; conditions: Klebsiella pneumoniae, MTCC618
[4] = tested on: Bacillus subtilis MTCC 441; assay: as above; assay type: cell-based; conditions: MTCC441
[5] = tested on: Staphylococcus epidermidis; assay: as above; assay type: cell-based
[6] = tested on: Enterococcus faecium ATCC 51559 (VRE resistant); assay: as above; assay type: cell-based
[7] = tested on: Enterococcus faecium ATCC 35667; assay: as above; assay type: cell-based; conditions: ATCC35667
[8] = tested on: Escherichia coli MTCC 443; assay: as above; assay type: cell-based; conditions: MTCC443
[9] = tested on: Pseudomonas aeruginosa MTCC 741; assay: as above; assay type: cell-based; conditions: MTCC741
[10] = tested on: Mycobacterium tuberculosis H37Rv strain; assay: Anti-tubercular properties, alamar blue microplate MIC; assay type: cell-based; conditions: 168 h, M. tuberculosis H37Rv, seven days at 37° C., read-out: anti-mycobacterial activity (MIC)

T1 sequence (P0AES4 whole entry, one chain of several): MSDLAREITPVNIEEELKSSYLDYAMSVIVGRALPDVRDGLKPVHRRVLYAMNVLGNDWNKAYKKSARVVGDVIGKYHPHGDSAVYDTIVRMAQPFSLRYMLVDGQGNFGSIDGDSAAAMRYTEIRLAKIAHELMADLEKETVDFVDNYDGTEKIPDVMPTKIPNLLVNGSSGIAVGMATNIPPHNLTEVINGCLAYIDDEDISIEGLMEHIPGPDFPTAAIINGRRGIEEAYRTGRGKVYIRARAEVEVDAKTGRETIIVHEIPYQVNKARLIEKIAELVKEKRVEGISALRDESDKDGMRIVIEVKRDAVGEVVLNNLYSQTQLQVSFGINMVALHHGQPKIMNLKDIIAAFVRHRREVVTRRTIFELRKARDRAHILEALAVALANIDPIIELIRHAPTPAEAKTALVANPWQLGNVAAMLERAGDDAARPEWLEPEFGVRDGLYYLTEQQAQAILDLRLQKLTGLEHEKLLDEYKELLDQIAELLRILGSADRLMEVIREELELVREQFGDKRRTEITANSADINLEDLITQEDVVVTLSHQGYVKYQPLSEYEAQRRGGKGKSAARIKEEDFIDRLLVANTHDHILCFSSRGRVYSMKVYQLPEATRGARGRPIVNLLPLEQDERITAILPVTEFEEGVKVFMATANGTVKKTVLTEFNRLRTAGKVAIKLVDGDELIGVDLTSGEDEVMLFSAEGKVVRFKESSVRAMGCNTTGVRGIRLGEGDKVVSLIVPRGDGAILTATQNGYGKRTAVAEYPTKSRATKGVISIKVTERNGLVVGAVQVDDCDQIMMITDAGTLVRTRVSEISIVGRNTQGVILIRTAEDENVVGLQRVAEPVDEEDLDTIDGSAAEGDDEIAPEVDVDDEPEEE

| Compound | MIC [1] [µg/mL] | MIC [2] [µg/mL] | IC50 (DNA gyrase from E. coli) [nM] | MIC ([3]; Klebsiella pneumonia MTCC 618, read-out: MIC) [µg/mL] | MIC ([4]; Bacillus subtilis MTCC 441, read-out: MIC) [µg/mL] | MIC ([5]; read-out: MIC) [µg/mL] | MIC ([6]; Enterococcus faecium ATCC 51559 (VRE resistant), read-out: MIC) [µg/mL] | MIC ([7]; Enterococcus faecium ATCC 35667, read-out: MIC) [µg/mL] | MIC ([8]; Escherichia coli MTCC 443, read-out: MIC) [µg/mL] | MIC ([9]; Pseudomonas aeruginosa MTCC 741, read-out: MIC) [µg/mL] | MIC [10] [µg/mL] | MIC [3] [µg/mL] | MIC ([4]; Bacillus subtilis) [µg/mL] | MIC [5] [µg/mL] | MIC ([6]; Enterococcus faecium) [µg/mL] | MIC ([7]; Enterococcus faecium) [µg/mL] | MIC ([8]; Escherichia coli) [µg/mL] | MIC ([9]; Pseudomonas aeruginosa) [µg/mL] |
| --- | --- | --- | --- | --- | --- | --- | --- | --- | --- | --- | --- | --- | --- | --- | --- | --- | --- | --- |
| CNc1cc(F)cc2c(/C=C/C(=O)c3ccc(C(=O)O)cc3)c[nH]c12 [Compound 1, (E)-4-(3-(5-fluoro-7-(methylamino)-1H-indol-3-yl)acryloyl)benzoic acid] | 0.75 (≈ 2.22 µM) | 0.75 (≈ 2.22 µM) | 150 | 0.75 (≈ 2.22 µM) | 0.25 (≈ 0.739 µM) | 1 (≈ 2.96 µM) | 0.5 (≈ 1.48 µM) | 1 (≈ 2.96 µM) | 0.75 (≈ 2.22 µM) | 0.5 (≈ 1.48 µM) | 2 (≈ 5.91 µM) |  |  |  |  |  |  |  |
| CN[C@H](CC(C)C)C(=O)N[C@H]1C(=O)N[C@@H](CC(N)=O)C(=O)N[C@H]2C(=O)N[C@H]3C(=O)N[C@H](C(=O)N[C@H](C(=O)O)c4cc(O)cc(O)c4-c4cc3ccc4O)[C@H](O)c3ccc(c(Cl)c3)Oc3cc2cc(c3O[C@@H]2O[C@H](CO)[C@@H](O)[C@H](O)[C@H]2O[C@H]2C[C@](C)(N)[C@H](O)[C@H](C)O2)Oc2ccc(cc2Cl)[C@H]1O [Vancomycin, reference compound] |  |  |  |  |  |  |  |  |  |  |  | > 128 | 0.5 (≈ 0.345 µM) | 1 (≈ 0.69 µM) | > 128 | 0.5 (≈ 0.345 µM) | > 128 | > 128 |
